Reference: ChEMBL document CHEMBL4190379 (Bioorg Med Chem Lett, 2018)

What was measured:
[1] = target: Histone acetyltransferase KAT2A (Homo sapiens) (UniProt Q92830); assay: Binding affinity to human GCN5L2 expressed in bacterial system assessed as remaining binding level at 1 uM by BROMOscan assay relative to control
[2] = target: T1, Transcription intermediary factor 1-alpha (Homo sapiens) (UniProt O15164); assay: Binding affinity to human TRIM24-phd-bromo expressed in bacterial system assessed as remaining binding level at 1 uM by BROMOscan assay relative to control
T1 sequence (whole entry): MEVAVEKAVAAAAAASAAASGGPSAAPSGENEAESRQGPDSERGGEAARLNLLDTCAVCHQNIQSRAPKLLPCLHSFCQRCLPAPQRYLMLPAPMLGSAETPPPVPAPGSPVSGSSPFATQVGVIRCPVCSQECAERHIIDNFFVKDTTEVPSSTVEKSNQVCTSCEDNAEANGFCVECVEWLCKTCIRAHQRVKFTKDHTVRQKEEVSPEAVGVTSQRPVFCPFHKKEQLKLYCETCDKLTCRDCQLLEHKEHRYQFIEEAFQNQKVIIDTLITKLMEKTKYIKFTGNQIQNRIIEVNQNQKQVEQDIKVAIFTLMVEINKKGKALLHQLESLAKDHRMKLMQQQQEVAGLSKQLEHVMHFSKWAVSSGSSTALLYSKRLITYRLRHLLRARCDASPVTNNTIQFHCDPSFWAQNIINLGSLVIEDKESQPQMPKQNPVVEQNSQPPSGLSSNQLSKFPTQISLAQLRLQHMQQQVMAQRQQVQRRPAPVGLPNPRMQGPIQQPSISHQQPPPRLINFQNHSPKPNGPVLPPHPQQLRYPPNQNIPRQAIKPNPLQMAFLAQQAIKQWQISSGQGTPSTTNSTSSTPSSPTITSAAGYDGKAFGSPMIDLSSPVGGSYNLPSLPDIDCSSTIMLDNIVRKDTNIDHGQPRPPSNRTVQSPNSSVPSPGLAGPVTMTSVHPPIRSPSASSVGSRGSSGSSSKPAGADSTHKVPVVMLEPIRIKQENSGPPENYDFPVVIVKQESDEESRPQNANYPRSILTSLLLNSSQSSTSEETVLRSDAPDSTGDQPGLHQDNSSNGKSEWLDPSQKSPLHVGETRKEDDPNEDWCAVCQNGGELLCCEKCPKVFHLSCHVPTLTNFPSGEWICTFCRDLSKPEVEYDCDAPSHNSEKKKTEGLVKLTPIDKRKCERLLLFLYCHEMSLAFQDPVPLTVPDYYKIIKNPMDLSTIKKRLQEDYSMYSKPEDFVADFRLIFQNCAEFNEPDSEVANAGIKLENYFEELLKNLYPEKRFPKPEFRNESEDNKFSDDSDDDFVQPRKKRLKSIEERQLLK

[3] = target: T2, Bromodomain and PHD finger-containing protein 3 (Homo sapiens) (UniProt Q9ULD4); assay: Binding affinity to human BRPF3 expressed in bacterial system assessed as remaining binding level at 1 uM by BROMOscan assay relative to control
T2 sequence (whole entry): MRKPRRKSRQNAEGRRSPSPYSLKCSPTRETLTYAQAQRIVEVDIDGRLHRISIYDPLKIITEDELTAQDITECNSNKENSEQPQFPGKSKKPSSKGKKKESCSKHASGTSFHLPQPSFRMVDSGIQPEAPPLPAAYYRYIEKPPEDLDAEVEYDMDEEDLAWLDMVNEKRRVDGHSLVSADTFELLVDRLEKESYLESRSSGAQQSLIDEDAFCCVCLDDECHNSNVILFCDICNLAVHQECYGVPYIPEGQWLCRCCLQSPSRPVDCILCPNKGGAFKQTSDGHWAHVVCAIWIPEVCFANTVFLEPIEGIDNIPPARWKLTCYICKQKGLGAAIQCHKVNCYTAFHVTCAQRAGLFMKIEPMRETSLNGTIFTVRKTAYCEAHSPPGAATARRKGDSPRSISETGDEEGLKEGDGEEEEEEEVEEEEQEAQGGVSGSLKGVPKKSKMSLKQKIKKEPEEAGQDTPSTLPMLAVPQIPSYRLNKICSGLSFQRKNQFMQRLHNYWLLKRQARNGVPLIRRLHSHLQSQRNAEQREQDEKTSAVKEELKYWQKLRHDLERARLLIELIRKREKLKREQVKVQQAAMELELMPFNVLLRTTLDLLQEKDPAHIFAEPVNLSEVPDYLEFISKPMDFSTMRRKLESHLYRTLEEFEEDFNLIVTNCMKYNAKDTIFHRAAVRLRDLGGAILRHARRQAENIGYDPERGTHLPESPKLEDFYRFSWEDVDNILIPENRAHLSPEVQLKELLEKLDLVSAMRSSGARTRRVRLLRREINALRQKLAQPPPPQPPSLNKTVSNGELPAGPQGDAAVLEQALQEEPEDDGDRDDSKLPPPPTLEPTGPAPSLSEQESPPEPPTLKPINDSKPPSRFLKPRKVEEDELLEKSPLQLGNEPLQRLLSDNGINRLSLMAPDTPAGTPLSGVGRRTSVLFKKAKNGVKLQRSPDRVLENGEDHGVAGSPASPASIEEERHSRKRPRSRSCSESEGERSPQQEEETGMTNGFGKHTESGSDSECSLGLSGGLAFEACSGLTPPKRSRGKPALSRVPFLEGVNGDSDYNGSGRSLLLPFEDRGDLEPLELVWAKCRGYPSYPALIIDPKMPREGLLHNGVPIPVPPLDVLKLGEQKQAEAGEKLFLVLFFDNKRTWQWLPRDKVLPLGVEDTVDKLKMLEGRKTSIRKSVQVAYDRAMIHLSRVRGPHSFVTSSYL

MX1 = assay: Antiproliferative activity against human MX1 cells incubated for 72 hrs by cell-titer Glo assay; assay type: functional, cell-based; conditions: MX1, 72 h
[4] = target: T3, Bromodomain-containing protein 9 (Homo sapiens) (UniProt Q9H8M2); assay: Binding affinity to human BRD9 expressed in bacterial system assessed as remaining binding level at 1 uM by BROMOscan assay relative to control
T3 sequence (whole entry): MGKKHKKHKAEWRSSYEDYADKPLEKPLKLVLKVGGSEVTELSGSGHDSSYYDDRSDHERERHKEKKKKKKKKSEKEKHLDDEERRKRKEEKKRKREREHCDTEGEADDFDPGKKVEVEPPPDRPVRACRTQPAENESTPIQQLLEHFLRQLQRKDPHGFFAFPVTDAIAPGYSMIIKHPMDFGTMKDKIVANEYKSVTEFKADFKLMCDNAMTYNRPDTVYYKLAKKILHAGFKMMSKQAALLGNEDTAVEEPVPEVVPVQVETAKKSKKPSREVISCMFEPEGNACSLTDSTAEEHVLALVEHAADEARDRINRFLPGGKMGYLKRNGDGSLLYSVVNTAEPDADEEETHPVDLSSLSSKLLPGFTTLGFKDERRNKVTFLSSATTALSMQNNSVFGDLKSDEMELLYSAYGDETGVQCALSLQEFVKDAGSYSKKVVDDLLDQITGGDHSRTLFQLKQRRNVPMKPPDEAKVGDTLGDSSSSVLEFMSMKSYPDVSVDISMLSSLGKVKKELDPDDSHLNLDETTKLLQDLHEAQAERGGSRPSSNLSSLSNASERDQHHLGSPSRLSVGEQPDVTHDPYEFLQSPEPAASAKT

Sequence of Histone acetyltransferase KAT2A (Homo sapiens) (Q92830 2-837 limits assumed): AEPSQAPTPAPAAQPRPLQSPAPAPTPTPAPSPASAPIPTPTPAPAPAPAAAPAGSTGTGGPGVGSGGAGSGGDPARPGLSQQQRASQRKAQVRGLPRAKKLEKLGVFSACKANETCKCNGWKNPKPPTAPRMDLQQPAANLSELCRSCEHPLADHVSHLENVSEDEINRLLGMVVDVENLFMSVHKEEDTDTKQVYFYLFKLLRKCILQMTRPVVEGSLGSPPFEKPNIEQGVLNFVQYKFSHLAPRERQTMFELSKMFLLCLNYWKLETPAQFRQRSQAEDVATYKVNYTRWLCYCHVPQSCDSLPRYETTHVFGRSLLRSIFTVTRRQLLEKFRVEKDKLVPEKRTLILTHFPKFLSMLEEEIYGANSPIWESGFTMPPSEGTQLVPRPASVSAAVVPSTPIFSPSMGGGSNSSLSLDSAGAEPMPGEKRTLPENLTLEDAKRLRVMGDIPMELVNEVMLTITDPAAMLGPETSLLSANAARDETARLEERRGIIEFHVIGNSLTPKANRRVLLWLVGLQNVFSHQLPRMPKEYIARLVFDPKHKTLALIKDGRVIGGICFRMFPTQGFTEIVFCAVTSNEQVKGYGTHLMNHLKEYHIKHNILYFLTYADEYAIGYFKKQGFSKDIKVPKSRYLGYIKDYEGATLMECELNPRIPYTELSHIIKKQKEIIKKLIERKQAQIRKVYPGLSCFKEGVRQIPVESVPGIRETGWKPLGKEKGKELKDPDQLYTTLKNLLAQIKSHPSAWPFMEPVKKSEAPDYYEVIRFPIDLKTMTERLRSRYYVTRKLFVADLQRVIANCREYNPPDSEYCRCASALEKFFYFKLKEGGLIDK

Activity [1] [%]	Activity [2] [%]	Activity [3] [%]	Activity [4] [%]	SMILES	EC50 (MX1) [nM]
87	90	100	96	Cn1cc2c3c(c[nH]c(=O)c31)-c1cc(CS(C)(=O)=O)ccc1N(c1ccc(F)cc1)C2	1.4
84	54	94	38	Cn1cc2c3c(c[nH]c3c1=O)CN(c1ccccn1)c1ccc(CS(C)(=O)=O)cc1-2	1.3
97	67	88	56	Cn1cc2c3c(c[nH]c3c1=O)CN(c1ccc(F)cc1F)c1ccc(CS(C)(=O)=O)cc1-2	3.4
